Reference: patent US20260207794A1, “NOVEL COMPOUNDS FOR DIAGNOSIS” (AC IMMUNE SA, priority 2022, published 2026)
Where a name gives a salt, the structure may show the parent alone.

Molecular target: T1, PD brain-derived alpha-synuclein aggregates (Homo sapiens, UniProt P37840)
T1 construct: from tissue; host or cells: human PD donor brain, sarkosyl-insoluble pellet
Experiment: Micro-radiobinding competition assay
Assay type: binding
Settings: for Competition at 100 nM (%): 100 nM example compound; for Competition at 100 nM (%) / Competition at 1 μM (%): competition over [3H]-alpha-syn reference ligand (20 nM or 30 nM), human PD brain-derived a-syn aggregates; for Competition at 1 μM (%): 1 μM example compound; for Ki: mean of two independent experiments, PD brain-derived homogenates from two different donors
Method: The procedure was adapted from the protocol described in Spillantini et al., 1998. Frozen tissue blocks from PD donors were thawed on ice and homogenized using a glass dounce homogenizer. The homogenate was then centrifuged at 11,000×g (12,700 RPM) in an ultracentrifuge (Beckman, XL100K) for 20 minutes at 4° C. using a pre-cooled 70.1 rotor (Beckman, 342184). Pellets were resuspended in extraction buffer [10 mM Tris-HCl pH 7.4, 10% sucrose, 0.85 M NaCl, 1% protease inhibitor (Calbiochem 539131), 1 mM EGTA, 1% phosphatase inhibitor (Sigma P5726 and P0044)] and centrifuged at 15,000×g (14,800 RPM, a 70.1 Ti rotor) for 20 minutes at 4° C. Pellets were discarded and sarkosyl (20% stock solution, Sigma L7414) was added to the supernatants to a final concentration of 1% and stirred at room temperature for one hour. This solution was then centrifuged at 100,000×g (38,000 RPM, 70.1 Ti rotor) for one hour at 4° C. Pellets containing enriched alpha-synuclein aggregates were resuspended in PBS per gram of brain initially used and stored at −80° C. until use.
PD brain-derived alpha-synuclein aggregates were spotted onto microarray slides. The slides were incubated with [^3H]-alpha-synuclein reference at 20 nM or 30 nM and the example compounds (non-radiolabelled) at 1 μM and 100 nM. In some cases, the non-radiolabelled example compounds were further assessed for a range of different concentrations, varying from 0.05 nM to 2 μM. After incubation, slides were washed and scanned by a real-time autoradiography system (BeaQuant, ai4R). Quantification of signal was performed by using the image analysis software Beamage (ai4R).
Non-specific signal was determined with an excess of non-radiolabelled alpha-syn reference compound (2 μM) and specific binding was calculated by subtracting the non-specific signal from the total signal. Competition was calculated as percentage, where 0% was defined as the specific binding in the presence of vehicle and 100% as the values obtained in the presence of excess of the non-radiolabelled alpha-syn reference compound. Ki values were calculated in GraphPad Prism7 by applying a nonlinear regression curve fit using a one site, specific binding model. All measurements were performed with at least two technical replicates. For compounds tested in more than one experiment, the mean of the replicates or Ki values in independent experiments is reported.

Compound | Competition at 100 nM (%) | Competition at 1 μM (%) | Ki [nM]
O=C1N(c2cccnc2)Cc2nc(-c3ccc(N4CC[C@@H](F)C4)nc3)cn21 [Example 2, (R)-2-(6-(3-fluoropyrrolidin-1-yl)pyridin-3-yl)-6-(pyridin-3-yl)-6,7-dihydro-5H-imidazo[1,5-a]imidazol-5-one Hydrochloride] | 63 | 86 | 124
O=C1N(c2cccnc2)Cc2nc(-c3ccc(N4CC[C@H](F)C4)nc3)cn21 [Example 3, (S)-2-(6-(3-fluoropyrrolidin-1-yl)pyridin-3-yl)-6-(pyridin-3-yl)-6,7-dihydro-5H-imidazo[1,5-a]imidazol-5-one Hydrochloride] | 59 | 85 | 97
O=C1N(c2cccnc2)Cc2cc(-c3ccc(F)nc3)cn21 [Example 4, 6-(6-fluoropyridin-3-yl)-2-(pyridin-3-yl)-1H-pyrrolo[1,2-c]imidazol-3(2H)-one] | 51 | 52 | 
Cn1cc(N2Cc3cc(-c4ccc(N5CC[C@H](F)C5)nc4)cn3C2=O)cn1 [Example 5, (S)-6-(6-(3-fluoropyrrolidin-1-yl)pyridin-3-yl)-2-(1-methyl-1H-pyrazol-4-yl)-1,2-dihydro-3H-pyrrolo[1,2-c]imidazol-3-one Hydrogen Chloride Salt] | 87 | 102 | 
Cn1cc(N2Cc3cc(-c4ccc(N5CC[C@@H](F)C5)nc4)cn3C2=O)cn1 [Example 6, (R)-6-(6-(3-fluoropyrrolidin-1-yl)pyridin-3-yl)-2-(1-methyl-1H-pyrazol-4-yl)-1,2-dihydro-3H-pyrrolo[1,2-c]imidazol-3-one Hydrogen Chloride Salt] | 82 | 100 | 

Now from value to compound:

Competition at 100 nM (%) | Competition at 1 μM (%) | Ki [nM] | Compound
75 | 95 |  | O=C1N(c2cccnc2)Cc2cc(-c3ccc(N4CC[C@@H](F)C4)nc3)cn21 [Example 1, (R)-6-(6-(3-fluoropyrrolidin-1-yl)pyridin-3-yl)-2-(pyridin-3-yl)-1H-pyrrolo[1,2-c]imidazol-3(2H)-one Hydrochloride]
69 | 85 |  | O=C1N(c2cccnc2)Cc2cc(-c3ccc(N4CC[C@H](F)C4)nc3)cn21 [Example 7, (S)-6-(6-(3-fluoropyrrolidin-1-yl)pyridin-3-yl)-2-(pyridin-3-yl)-1,2-dihydro-3H-pyrrolo[1,2-c]imidazol-3-one Hydrogen Chloride Salt]
